# Tested on: cancer cells
# Assay: MTT cytotoxic assay of esterification products (Cytotoxicity activity)
# Assay type: cell-based, human
# How it was run: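 Cytotoxicity was read by MTT (Carmichael method, modified), with cells seeded 24 h ahead of treatment. Sixteen human cancer lines spanning bone, lung, bladder, ovary, colon, pancreas, prostate, skin, mouth, kidney, breast, liver, brain, leukemia and cervix were used. Test samples were acyl chloride esterification products of triterpenes, as mixtures or HPLC-purified compounds.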
# [1] = E4A esterified with Crotonoyl chloride (Cro = Crotonoyl), compounds isolated with HPLC
# [2] = E4A esterified with Cinnamoyl chloride (Cin = Cinnamoyl), compounds isolated with HPLC
SMILES,Cytotoxicity activity [2],also measured
CC=CC(=O)OCC12C(O)CC3(C)C(=CCC4C5(C)CCC(O)C(C)(CO)C5CCC43C)C1CC(C)(C)C(O)C2OC(=O)C=CC (centres unmarked) [Compound I26],–,Cytotoxicity activity [1]: moderate
CC=CC(=O)OCC12C(O)CC3(C)C(=CCC4C5(C)CCC(OC(=O)C=CC)C(C)(CO)C5CCC43C)C1CC(C)(C)C(O)C2O (centres unmarked) [Compound I27],–,Cytotoxicity activity [1]: moderate
CC=CC(=O)OCC12C(OC(=O)C=CC)CC3(C)C(=CCC4C5(C)CCC(O)C(C)(CO)C5CCC43C)C1CC(C)(C)C(O)C2O (centres unmarked) [Compound I28],–,Cytotoxicity activity [1]: moderate
CC=CC(=O)OCC1(C)C(O)CCC2(C)C1CCC1(C)C2CC=C2C3CC(C)(C)C(OC(=O)C=CC)C(O)C3(CO)C(O)CC21C (centres unmarked) [Compound I29],–,Cytotoxicity activity [1]: moderate
CC=CC(=O)OCC1(C)C(O)CCC2(C)C1CCC1(C)C2CC=C2C3CC(C)(C)C(O)C(OC(=O)C=CC)C3(CO)C(O)CC21C (centres unmarked) [Compound I30],–,Cytotoxicity activity [1]: moderate
CC=CC(=O)OCC1(C)C(OC(=O)C=CC)CCC2(C)C1CCC1(C)C2CC=C2C3CC(C)(C)C(O)C(O)C3(CO)C(O)CC21C (centres unmarked) [Compound I31],–,Cytotoxicity activity [1]: moderate
CC=CC(=O)OCC1(C)C(O)CCC2(C)C1CCC1(C)C2CC=C2C3CC(C)(C)C(O)C(O)C3(CO)C(OC(=O)C=CC)CC21C (centres unmarked) [Compound I32],–,Cytotoxicity activity [1]: moderate
CC1(C)CC2C3=CCC4C5(C)CCC(O)C(C)(COC(=O)C=Cc6ccccc6)C5CCC4(C)C3(C)CC(O)C2(CO)C(O)C1O (centres unmarked) [Compound J1],moderate,–
CC1(C)CC2C3=CCC4C5(C)CCC(O)C(C)(CO)C5CCC4(C)C3(C)CC(O)C2(COC(=O)C=Cc2ccccc2)C(O)C1O (centres unmarked) [Compound J2],moderate,–
CC1(C)CC2C3=CCC4C5(C)CCC(O)C(C)(COC(=O)C=Cc6ccccc6)C5CCC4(C)C3(C)CC(O)C2(COC(=O)C=Cc2ccccc2)C(O)C1O (centres unmarked) [Compound J3],strong,–
CC1(C)CC2C3=CCC4C5(C)CCC(O)C(C)(COC(=O)C=Cc6ccccc6)C5CCC4(C)C3(C)CC(O)C2(COC(=O)C=Cc2ccccc2)C(O)C1OC(=O)C=Cc1ccccc1 (centres unmarked) [Compound J4],moderate,–
CC1(C)CC2C3=CCC4C5(C)CCC(O)C(C)(COC(=O)C=Cc6ccccc6)C5CCC4(C)C3(C)CC(O)C2(COC(=O)C=Cc2ccccc2)C(OC(=O)C=Cc2ccccc2)C1O (centres unmarked) [Compound J5],moderate,–
CC1(C)CC2C3=CCC4C5(C)CCC(OC(=O)C=Cc6ccccc6)C(C)(COC(=O)C=Cc6ccccc6)C5CCC4(C)C3(C)CC(O)C2(COC(=O)C=Cc2ccccc2)C(O)C1O (centres unmarked) [Compound J6],moderate,–
CC1(C)CC2C3=CCC4C5(C)CCC(O)C(C)(COC(=O)C=Cc6ccccc6)C5CCC4(C)C3(C)CC(OC(=O)C=Cc3ccccc3)C2(COC(=O)C=Cc2ccccc2)C(O)C1O (centres unmarked) [Compound J7],moderate,–
CC1(C)CC2C3=CCC4C5(C)CCC(O)C(C)(COC(=O)C=Cc6ccccc6)C5CCC4(C)C3(C)CC(O)C2(COC(=O)C=Cc2ccccc2)C(OC(=O)C=Cc2ccccc2)C1OC(=O)C=Cc1ccccc1 (centres unmarked) [Compound J8],weak,–
CC1(C)CC2C3=CCC4C5(C)CCC(OC(=O)C=Cc6ccccc6)C(C)(COC(=O)C=Cc6ccccc6)C5CCC4(C)C3(C)CC(O)C2(COC(=O)C=Cc2ccccc2)C(OC(=O)C=Cc2ccccc2)C1O (centres unmarked) [Compound J9],weak,–
CC1(C)CC2C3=CCC4C5(C)CCC(OC(=O)C=Cc6ccccc6)C(C)(COC(=O)C=Cc6ccccc6)C5CCC4(C)C3(C)CC(OC(=O)C=Cc3ccccc3)C2(COC(=O)C=Cc2ccccc2)C(O)C1O (centres unmarked) [Compound J10],weak,–
CC1(C)CC2C3=CCC4C5(C)CCC(OC(=O)C=Cc6ccccc6)C(C)(COC(=O)C=Cc6ccccc6)C5CCC4(C)C3(C)CC(O)C2(COC(=O)C=Cc2ccccc2)C(O)C1OC(=O)C=Cc1ccccc1 (centres unmarked) [Compound J11],weak,–
CC1(C)CC2C3=CCC4C5(C)CCC(O)C(C)(COC(=O)C=Cc6ccccc6)C5CCC4(C)C3(C)CC(OC(=O)C=Cc3ccccc3)C2(COC(=O)C=Cc2ccccc2)C(OC(=O)C=Cc2ccccc2)C1O (centres unmarked) [Compound J12],weak,–
CC1(C)CC2C3=CCC4C5(C)CCC(O)C(C)(COC(=O)C=Cc6ccccc6)C5CCC4(C)C3(C)CC(OC(=O)C=Cc3ccccc3)C2(COC(=O)C=Cc2ccccc2)C(O)C1OC(=O)C=Cc1ccccc1 (centres unmarked) [Compound J13],weak,–

SMILES,Cytotoxicity activity [2],also measured
CC1(C)CC2C3=CCC4C5(C)CCC(OC(=O)C=Cc6ccccc6)C(C)(COC(=O)C=Cc6ccccc6)C5CCC4(C)C3(C)CC(O)C2(COC(=O)C=Cc2ccccc2)C(OC(=O)C=Cc2ccccc2)C1OC(=O)C=Cc1ccccc1 (centres unmarked) [Compound J15],weak,–
CC1(C)CC2C3=CCC4C5(C)CCC(O)C(C)(COC(=O)C=Cc6ccccc6)C5CCC4(C)C3(C)CC(OC(=O)C=Cc3ccccc3)C2(COC(=O)C=Cc2ccccc2)C(OC(=O)C=Cc2ccccc2)C1OC(=O)C=Cc1ccccc1 (centres unmarked) [Compound J16],weak,–
CC1(C)CC2C3=CCC4C5(C)CCC(OC(=O)C=Cc6ccccc6)C(C)(COC(=O)C=Cc6ccccc6)C5CCC4(C)C3(C)CC(OC(=O)C=Cc3ccccc3)C2(COC(=O)C=Cc2ccccc2)C(O)C1OC(=O)C=Cc1ccccc1 (centres unmarked) [Compound J17],weak,–
CC1(C)CC2C3=CCC4C5(C)CCC(OC(=O)C=Cc6ccccc6)C(C)(COC(=O)C=Cc6ccccc6)C5CCC4(C)C3(C)CC(OC(=O)C=Cc3ccccc3)C2(COC(=O)C=Cc2ccccc2)C(OC(=O)C=Cc2ccccc2)C1O (centres unmarked) [Compound J18],weak,–
CC1(C)CC2C3=CCC4C5(C)CCC(OC(=O)C=Cc6ccccc6)C(C)(COC(=O)C=Cc6ccccc6)C5CCC4(C)C3(C)CC(OC(=O)C=Cc3ccccc3)C2(COC(=O)C=Cc2ccccc2)C(OC(=O)C=Cc2ccccc2)C1OC(=O)C=Cc1ccccc1 (centres unmarked) [Compound J19],none,–
CC1(C)CC2C3=CCC4C5(C)CCC(O)C(C)(CO)C5CCC4(C)C3(C)CC(O)C2(COC(=O)C=Cc2ccccc2)C(OC(=O)C=Cc2ccccc2)C1OC(=O)C=Cc1ccccc1 (centres unmarked) [Compound J20],moderate,–
CC1(C)CC2C3=CCC4C5(C)CCC(O)C(C)(COC(=O)C=Cc6ccccc6)C5CCC4(C)C3(C)CC(O)C2(CO)C(OC(=O)C=Cc2ccccc2)C1OC(=O)C=Cc1ccccc1 (centres unmarked) [Compound J21],moderate,–
CC1(C)CC2C3=CCC4C5(C)CCC(O)C(C)(CO)C5CCC4(C)C3(C)CC(OC(=O)C=Cc3ccccc3)C2(CO)C(OC(=O)C=Cc2ccccc2)C1OC(=O)C=Cc1ccccc1 (centres unmarked) [Compound J22],moderate,–
CC1(C)CC2C3=CCC4C5(C)CCC(OC(=O)C=Cc6ccccc6)C(C)(CO)C5CCC4(C)C3(C)CC(O)C2(CO)C(OC(=O)C=Cc2ccccc2)C1OC(=O)C=Cc1ccccc1 (centres unmarked) [Compound J23],moderate,–
CC1(C)CC2C3=CCC4C5(C)CCC(O)C(C)(CO)C5CCC4(C)C3(C)CC(O)C2(CO)C(OC(=O)C=Cc2ccccc2)C1OC(=O)C=Cc1ccccc1 (centres unmarked) [Compound J24],moderate,–
CC1(C)CC2C3=CCC4C5(C)CCC(O)C(C)(CO)C5CCC4(C)C3(C)CC(O)C2(COC(=O)C=Cc2ccccc2)C(O)C1OC(=O)C=Cc1ccccc1 (centres unmarked) [Compound J25],moderate,–
CC1(C)CC2C3=CCC4C5(C)CCC(O)C(C)(CO)C5CCC4(C)C3(C)CC(O)C2(COC(=O)C=Cc2ccccc2)C(OC(=O)C=Cc2ccccc2)C1O (centres unmarked) [Compound J26],moderate,–
CC1(C)CC2C3=CCC4C5(C)CCC(OC(=O)C=Cc6ccccc6)C(C)(CO)C5CCC4(C)C3(C)CC(O)C2(COC(=O)C=Cc2ccccc2)C(O)C1O (centres unmarked) [Compound J27],moderate,–
CC1(C)CC2C3=CCC4C5(C)CCC(O)C(C)(CO)C5CCC4(C)C3(C)CC(OC(=O)C=Cc3ccccc3)C2(COC(=O)C=Cc2ccccc2)C(O)C1O (centres unmarked) [Compound J28],moderate,–
CC1(C)CC2C3=CCC4C5(C)CCC(O)C(C)(COC(=O)C=Cc6ccccc6)C5CCC4(C)C3(C)CC(O)C2(CO)C(O)C1OC(=O)C=Cc1ccccc1 (centres unmarked) [Compound J29],moderate,–
CC1(C)CC2C3=CCC4C5(C)CCC(O)C(C)(COC(=O)C=Cc6ccccc6)C5CCC4(C)C3(C)CC(O)C2(CO)C(OC(=O)C=Cc2ccccc2)C1O (centres unmarked) [Compound J30],moderate,–
CC1(C)CC2C3=CCC4C5(C)CCC(OC(=O)C=Cc6ccccc6)C(C)(COC(=O)C=Cc6ccccc6)C5CCC4(C)C3(C)CC(O)C2(CO)C(O)C1O (centres unmarked) [Compound J31],moderate,–
CC1(C)CC2C3=CCC4C5(C)CCC(O)C(C)(COC(=O)C=Cc6ccccc6)C5CCC4(C)C3(C)CC(OC(=O)C=Cc3ccccc3)C2(CO)C(O)C1O (centres unmarked) [Compound J32],moderate,–
CC1(C)CC2C3=CCC4C5(C)CCC(O)C(C)(COC(=O)c6ccccc6)C5CCC4(C)C3(C)CC(OC(=O)c3ccccc3)C2(COC(=O)c2ccccc2)C(OC(=O)c2ccccc2)C1O (centres unmarked) [Compound K12],–,"Cytotoxicity activity (E4A esterified with 2-propenoyl chloride (Ppe = Propenoyl), compounds isolated with HPLC): weak; Cytotoxicity activity (E4A esterified with Propionyl chloride (Ppi = Propionyl), compounds isolated with HPLC): weak; Cytotoxicity activity (E4A esterified with benzoyl chloride (Ben = benzoyl), compounds isolated with HPLC): weak; Cytotoxicity activity (esterification products of core compound E4A with (2E)-2-pentenoyl chloride (2pe = 2-pentenoyl)): weak; Cytotoxicity activity (esterification products of core compound E4A with Butyryl chloride (But = Butyryl)): weak; Cytotoxicity activity (esterification products of core compound E4A with Decanoyl chloride (Dec = Decanoyl)): weak; Cytotoxicity activity (esterification products of core compound E4A with Isobutyryl chloride (Iso = Isobutyryl)): weak; Cytotoxicity activity (esterification products of core compound E4A with Myristoyl chloride (Myr = Myristoyl)): weak; Cytotoxicity activity (esterification products of core compound E4A with Octanoyl chloride (Oct = Octanoyl)): weak"
